Data as given in article PMC11050424, “Antibacterial and Hemolytic Activity of Antimicrobial Hydrogels Utilizing Immobilized Antimicrobial Peptides” (International Journal of Molecular Sciences, 2024).
≈ marks a conversion by molar mass, not a printed value. Residues, ends and D or L forms follow the SMILES beside them.

How the values were obtained:
[1] = system: P. aeruginosa (CCUG 56489); format: cell-based, Pseudomonas aeruginosa
Experimental: (§1) The minimum inhibitory concentration protocol was adapted from [42], with the main change in volume for easier observation. In short, the protocol was as follows: a single colony of Staphylococcus aureus (CCUG 10778) or Pseudomonas aeruginosa (CCUG 56489) was inoculated in 4 mL of TSB and cultivated at 37 °C until OD ~ 0.7 which corresponds to a concentration of roughly 10^9 CFU mL^−1. This was then diluted 1000 times to a concentration of roughly 10^6 CFU mL^−1 using Mueller Hinton broth (MH broth). In the meantime, the different peptides were weighed in separate 15 mL falcon tubes and dissolved in MH broth for a concentration of 512 µM. Serial dilution by a factor of 2 was then performed, with MH broth, in a 24-well plate, leaving 500 µL of solution in each well. Then, 500 µL of the bacterial solution was added to each well resulting in a starting concentration of 5 × 10^5 CFU mL^−1. […] The plates were cultivated overnight (16–18 h) and the minimum inhibitory concentration was determined for the lowest concentration where no visible growth was observed. Three separate experiments were performed for all peptides and bacteria.

[2] = system: defibrinated horse blood; format: cell-based; details: red cells of horse, 1 h
Experimental: The use of hemolysis assays to study AMPs is a common implementation and quite standardized with small variations. Serial dilutions of the free AMPs were prepared in PBS to obtain 100 µL in Eppendorf tubes of the concentrations: 2, 4, 8, 16, 32, 64, 128, and 256 µM. A total of 100 µL of just PBS was added to an Eppendorf tube to serve as a negative control, and 100 µL of 0.2% Triton X-100 was added to an Eppendorf tube to serve as a positive control. The functionalized 8 mm Ø hydrogels as well as non-functionalized control hydrogels were placed in Eppendorf tubes together with 0.1, 0.2, 0.3 mL, or 0.4 mL PBS, two samples per type. For each volume, a set of negative control (PBS) and positive control (0.2% Triton X-100) was included using a matching volume. The blood used for the study was defibrinated horse blood from Thermo Fisher Scientific. The blood was placed in a 15 mL falcon tube and centrifuged at 4 °C for 10 min at 1000× g. The supernatant was discarded, and the erythrocytes were resuspended in 4 °C PBS and again centrifuged and the supernatant was removed. […]
The Eppendorf tubes were placed in an incubator at 37 °C for 1 h and the tubes were rotated 3 times every 15 min to limit sedimentation of the red blood cells. […] The absorbance was read at 540 nm using a Multiskan GO from Thermo Fisher Scientific. The rate of hemolysis was determined by Equation (2). […]

[3] = system: S. aureus (CCUG 10778); format: cell-based, Staphylococcus aureus
Experimental: as §1

Row | SMILES | MIC, P. aeruginosa [1] [µM] | Hemolysis at corresponding MIC values [2] | MIC, S. aureus [3] [µM] | Hemolysis at 8–16 µM (observed MIC values against P. aeruginosa) [2]; 16
1 | NCCCC[C@H](NC(=O)[C@@H](N)CCCCN)C(=O)N1CCC[C@H]1C(=O)N[C@@H](CCCCN)C(=O)N1CCC[C@H]1C(=O)N[C@@H](CCCCN)C(=O)N1CCC[C@H]1C(=O)N[C@@H](CCCCN)C(=O)N1CCC[C@H]1C(=O)N[C@@H](Cc1c[nH]c2ccccc12)C(=O)N[C@@H](Cc1c[nH]c2ccccc12)C(=O)N[C@@H](Cc1c[nH]c2ccccc12)C(=O)N[C@@H](Cc1c[nH]c2ccccc12)C(N)=O [K9W4] (H-KKPKPKPKPWWWW-NH2) | 64 to 128 | – | – | –
2 | N=C(N)NCCC[C@H](NC(=O)[C@@H](N)CCCNC(=N)N)C(=O)N1CCC[C@H]1C(=O)N[C@@H](CCCNC(=N)N)C(=O)N1CCC[C@H]1C(=O)N[C@@H](CCCNC(=N)N)C(=O)N1CCC[C@H]1C(=O)N[C@@H](CCCNC(=N)N)C(=O)N1CCC[C@H]1C(=O)N[C@@H](Cc1c[nH]c2ccccc12)C(=O)N[C@@H](Cc1c[nH]c2ccccc12)C(=O)N[C@@H](Cc1c[nH]c2ccccc12)C(=O)N[C@@H](Cc1c[nH]c2ccccc12)C(N)=O [R9W4] (H-RRPRPRPRPWWWW-NH2) | 16 (≈ 30.9 µg/mL) | below 20% | 8 (≈ 15.5 µg/mL) | –
3 | CC[C@H](C)[C@H](N)C(=O)N[C@@H](CC(C)C)C(=O)N[C@@H](CCCNC(=N)N)C(=O)N[C@@H](Cc1c[nH]c2ccccc12)C(=O)N1CCC[C@H]1C(=O)N[C@@H](Cc1c[nH]c2ccccc12)C(=O)N[C@@H](Cc1c[nH]c2ccccc12)C(=O)N1CCC[C@H]1C(=O)N[C@@H](Cc1c[nH]c2ccccc12)C(=O)N[C@@H](CCCNC(=N)N)C(=O)N[C@@H](CCCNC(=N)N)C(=O)N[C@@H](CCCCN)C(N)=O [Omiganan, reference compound] (H-ILRWPWWPWRRK-NH2) | 32 (≈ 56.9 µg/mL) | – | 4 to 8 | –
4 | N=C(N)NCCC[C@H](NC(=O)[C@@H]1CCCN1C(=O)[C@H](CCCNC(=N)N)NC(=O)[C@@H]1CCCN1C(=O)[C@H](CCCNC(=N)N)NC(=O)[C@@H]1CCCN1C(=O)[C@H](CCCCN)NC(=O)[C@@H](N)CCCCN)C(=O)N1CCC[C@H]1C(=O)N[C@@H](Cc1c[nH]c2ccccc12)C(=O)N[C@@H](Cc1c[nH]c2ccccc12)C(=O)N[C@@H](Cc1c[nH]c2ccccc12)C(=O)N[C@@H](Cc1c[nH]c2ccccc12)C(N)=O [KR9W4] (H-KKPRPRPRPWWWW-NH2) | 16 to 64 | – | 8 to 16 | –
5 | CC[C@H](C)[C@H](NC(=O)CNC(=O)[C@H](CCCNC(=N)N)NC(=O)[C@H](Cc1ccccc1)NC(=O)[C@@H](NC(=O)[C@H](Cc1c[nH]cn1)NC(=O)[C@H](Cc1c[nH]cn1)NC(=O)[C@H](Cc1ccccc1)NC(=O)[C@@H](N)Cc1ccccc1)[C@@H](C)CC)C(=O)N[C@H](C(=O)N[C@@H](Cc1c[nH]cn1)C(=O)N[C@H](C(=O)NCC(=O)N[C@@H](CCCCN)C(=O)N[C@H](C(=O)N[C@H](C(=O)N[C@@H](Cc1c[nH]cn1)C(=O)N[C@@H](CCCNC(=N)N)C(=O)N[C@@H](CC(C)C)C(=O)N[C@H](C(=O)N[C@H](C(=O)NCC(N)=O)[C@@H](C)O)C(C)C)[C@@H](C)CC)[C@@H](C)O)C(C)C)C(C)C [Piscidin 1, reference compound] (H-FFHHIFRGIVHVGKTIHRLVTG-NH2) | 8 to 16 | – | 1 to 2 | 60–100%
6 | N=C(N)NCCC[C@H](NC(=O)[C@@H](N)CCCNC(=N)N)C(=O)N1CCC[C@H]1C(=O)N[C@@H](CCCNC(=N)N)C(=O)N1CCC[C@H]1C(=O)N[C@@H](CCCNC(=N)N)C(=O)N1CCC[C@H]1C(=O)N[C@@H](CCCNC(=N)N)C(=O)N1CCC[C@H]1C(=O)N[C@@H](Cc1c[nH]c2ccccc12)C(=O)N[C@@H](Cc1c[nH]c2ccccc12)C(=O)N[C@@H](Cc1c[nH]c2ccccc12)C(=O)N[C@@H](Cc1c[nH]c2ccccc12)C(=O)N[C@@H](Cc1c[nH]c2ccccc12)C(N)=O [R9W5] (H-RRPRPRPRPWWWWW-NH2) | 32 to 64 | – | 16 (≈ 33.9 µg/mL) | –
